In brackets after ≈: the same amount, converted by molar mass. Where two headings read alike, the source gives them in different places.
Legend:
RG2 cells = experiment: Ganciclovir sensitivity assay (methyl-[3H]-thymidine accumulation, percent of control); assay type: cell-based; details: Rattus norvegicus; naive RG2 cells; read-out: ganciclovir ED50
Description: (§1) Sensitivity to ganciclovir and selection of "high" and "low" sensitivity clones. […] Following one day of growth, the culture medium of RG2TK+ and RG2 cells in Costar™ 96-well plates was replaced with ganciclovir™-containing medium (Cytovene™; Syntax Laboratories, Inc.; Palo Alto, Calif.) in the following concentrations: 3, 1, 0.6, 0.3, 0.1, 0.06, 0.03, 0.01, 0,006, 0.003, 0.001, 0.0006, 0.0003, 0.0001, 0.00006 mg/ml and ganciclovir™-free control media. The ganciclovir™-containing and control incubation media were changed daily. […] Radioactivity measured in each ganciclovir™-containing well was expressed as a percent of control (ganciclovir™-free) activity.

RG2TK+ cells = experiment: as above; assay type: cell-based, rat; details: for IC50: Rattus norvegicus, read-out: ganciclovir ED50
Description: Transduction of the HSV1-TK gene into RG2 cells. The STK retrovirus was obtained from filtered (0.1 μm) supernatants of gp-STK-A2 producer cell line cultures grown from a 50% confluent monolayer over 24 hours in Dulbecco's high-glucose medium with 10% bovine serum. Transduction of RG2 cells was accomplished by exposing the cell monolayer to the filtrate for 8 hours in the presence of Polybrene™ (8 μg/ml). Following a 24 hour incubation in standard medium, a selection medium containing Geneticin™ disulfate (800 μg/ml) was used to eliminate cells not expressing the neomycin resistance gene. The selection medium was changed daily to remove dead cells. After 7 days, a bulk culture of transduced RG2 cells (RG2TK+) was harvested for further propogation.
as §1

HSV1-TK = HSV1-TK (Human alphaherpesvirus 1 strain 17, UniProt P0DTH5); experiment: Accumulation of radiolabelled marker substrates in RG2TK+ transduced and RG2 wild-type cells, normalized to TdR; assay type: cell-based, herpes simplex virus
HSV1-TK, sequence (P0DTH5 whole entry): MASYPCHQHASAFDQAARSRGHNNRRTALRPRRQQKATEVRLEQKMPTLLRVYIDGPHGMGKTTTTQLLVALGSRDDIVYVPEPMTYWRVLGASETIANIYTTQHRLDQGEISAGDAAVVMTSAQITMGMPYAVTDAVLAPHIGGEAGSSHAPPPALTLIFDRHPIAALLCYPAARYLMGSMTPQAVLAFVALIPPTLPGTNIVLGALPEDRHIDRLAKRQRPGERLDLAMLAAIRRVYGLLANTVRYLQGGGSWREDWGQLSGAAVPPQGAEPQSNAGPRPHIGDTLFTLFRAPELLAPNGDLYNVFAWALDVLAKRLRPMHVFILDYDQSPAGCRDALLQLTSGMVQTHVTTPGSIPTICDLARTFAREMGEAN
Description: Source of radiolabelled "marker substrates". […] No carrier-added 5-[^123 I]-deoxyuridine (IUdR) was prepared by reacting 2-deoxyuridine (UdR) with carrier-free ^123 I-labelled sodium iodide in an iodogen coated reaction vial.
Comparison of "marker substrates" for identifying HSV1-tk gene expression in tissue culture. […] Each of these substrates were developed for or used as an anti-viral agent; they are phosphorylated by HSV1-TK and can be radiolabelled for noninvasive imaging.
Wild-type (nontransduced) RG2 cells were studied as a reference control. […] The cells were dislodged from the Petri dishes with a soft scraper, poured into 15 ml conical tubes, centrifuged and the medium aspirated. The tubes were cut to facilitate removing cells; they were blotted, placed in pre-weighed vials, weighed and prepared for counting. Samples were assayed for ^3 H- and ^14 C-radioactivity using a Packard B1600 TriCarb beta spectrometer using dual-channel and external standard splash and quench correction techniques. The medium was also counted before and following incubation. The data was expressed as a harvested cell-to-medium concentration ratio (dpm/g cells.div.dpm/ml medium).
Data analysis. […] These two related measures are useful to evaluate the intensity of the images (e.g., high "sensitivity") and the ability to differentiate between HSV1-TK and endogenous-TK in the images (e.g., high "selectivity"). The "selectivity" measure is not interpreted as a relative sensitivity (i.e., a value of 1 indicating equal sensitivity) of the substrate to HSV1-TK vs. endogenous-TK. […] They are intended for the direct comparison of substrates only.

Nc1nc2c(ncn2COC(CO)CO)c(=O)[nH]1 [ganciclovir, 9-(1,3-dihydroxy-2-propoxymethyl)-guanine]
IC50 (RG2 cells): 200 µg/mL (≈ 784 µM)
fold more sensitive to ganciclovir compared to bulk RG2TK+ cells (RG2TK+ cells; "high" sensitivity RG2TK+ clones (clone #16) vs bulk RG2TK+): 5 fold
fold less sensitive to ganciclovir compared to bulk RG2TK+ cells (RG2TK+ cells; "low" sensitivity RG2TK+ clones vs bulk RG2TK+): roughly 30 fold
IC50 (RG2TK+ cells; "high-sensitivity" RG2TK+ clone #16): ~0.2 µg/mL (≈ 0.784 µM)
IC50 (RG2TK+ cells; "low-sensitivity" RG2TK+ clone #32): ~30 µg/mL (≈ 118 µM)
IC50 (RG2TK+ cells; bulk culture of transduced RG2TK+ cells): 1 µg/mL (≈ 3.92 µM)
fold more sensitive to ganciclovir than RG2 cells (RG2TK+ cells; bulk RG2TK+ cells vs wild-type RG2 cells): approximately 200 fold
fold more sensitive to ganciclovir than wild-type RG2 cells (RG2TK+ cells; high-sensitivity RG2TK+ clone #16 vs wild-type RG2): approximately 1000 fold
Selectivity+ Sensitivity*/(substrate/TdR) for RG2 (HSV1-TK; Data from FIG. 5): 0.143
Sensitivity* Δ(substrate/TdR)/Δ(HSV1TK mRNA/S28 RNA IOD) (HSV1-TK; Data from FIG. 5): 0.0004
accumulation of ganciclovir by RG2TK+ cells compared to that of FIAU (HSV1-TK; RG2TK+ cells): less than 5%
accumulation of ganciclovir by RG2TK+ cells compared to that of IUdR (HSV1-TK; RG2TK+ cells): < 3%
accumulation in bulk RG2TK+ cells relative to wild-type RG2 cells (HSV1-TK; normalized to TdR, FIGS. 4 and 5B): 5.6 fold

Reference: patent publication US5703056A, “Non-invasive imaging of gene transfer” (priority 1995, dated 1997)
